“And” between values parts separate entries of the source, which are not always exact repeats. Equal entries are not always repeated.
Test system: 855422-203-R-J1-PDC complex spheroid growth
Experiment: Anticancer human tumor 855422-203-R-J1-PDC patient-derived bladder carcinoma cell line growth inhibition [AhR]
Settings: for viability, T/C: stronger effect = lower value
In short: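 Agents were dosed in half-log steps down from roughly clinical Cmax, or from 10 microM where Cmax was unknown, alone and with AhR antagonists. Read-out: percent test/control growth of tumor spheroids containing HUVEC and MSC stromal cells.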

[1] = curve of first compound, second compound 0.1 µM
[2] = curve of first compound, second compound 0.316 µM
[3] = curve of first compound, second compound 1 µM
[4] = curve of first compound, second compound 3.16 µM
[5] = curve of first compound, second compound 10 µM
[6] = second compound 0.1 µM, first compound 0.000316 µM
[7] = second compound 0.1 µM, first compound 0.001 µM
[8] = second compound 0.1 µM, first compound 0.00316 µM
[9] = second compound 0.1 µM, first compound 0.01 µM
[10] = second compound 0.1 µM, first compound 0.0316 µM
[11] = second compound 0.1 µM, first compound 0.1 µM
[12] = second compound 0.316 µM, first compound 0.000316 µM
[13] = second compound 0.316 µM, first compound 0.001 µM
[14] = second compound 0.316 µM, first compound 0.00316 µM
[15] = second compound 0.316 µM, first compound 0.01 µM
[16] = second compound 0.316 µM, first compound 0.0316 µM
[17] = second compound 0.316 µM, first compound 0.1 µM
[18] = second compound 1 µM, first compound 0.000316 µM
[19] = second compound 1 µM, first compound 0.001 µM
[20] = second compound 1 µM, first compound 0.00316 µM
[21] = second compound 1 µM, first compound 0.01 µM
[22] = second compound 1 µM, first compound 0.0316 µM
[23] = second compound 1 µM, first compound 0.1 µM
[24] = second compound 3.16 µM, first compound 0.000316 µM
[25] = second compound 3.16 µM, first compound 0.001 µM
[26] = second compound 3.16 µM, first compound 0.00316 µM
[27] = second compound 3.16 µM, first compound 0.01 µM
[28] = second compound 3.16 µM, first compound 0.0316 µM
[29] = second compound 3.16 µM, first compound 0.1 µM
[30] = second compound 10 µM, first compound 0.000316 µM
[31] = second compound 10 µM, first compound 0.001 µM
[32] = second compound 10 µM, first compound 0.00316 µM
[33] = second compound 10 µM, first compound 0.01 µM
[34] = second compound 10 µM, first compound 0.0316 µM
[35] = second compound 10 µM, first compound 0.1 µM
[36] = second compound 0.1 µM, first compound 0.316 µM
[37] = second compound 0.1 µM, first compound 1 µM
[38] = second compound 0.1 µM, first compound 3.16 µM
[39] = second compound 0.1 µM, first compound 10 µM
[40] = second compound 0.316 µM, first compound 0.316 µM
[41] = second compound 0.316 µM, first compound 1 µM
[42] = second compound 0.316 µM, first compound 3.16 µM
[43] = second compound 0.316 µM, first compound 10 µM
[44] = second compound 1 µM, first compound 0.316 µM
[45] = second compound 1 µM, first compound 1 µM
[46] = second compound 1 µM, first compound 3.16 µM
[47] = second compound 1 µM, first compound 10 µM
[48] = second compound 3.16 µM, first compound 0.316 µM
[49] = second compound 3.16 µM, first compound 1 µM
[50] = second compound 3.16 µM, first compound 3.16 µM
[51] = second compound 3.16 µM, first compound 10 µM
[52] = second compound 10 µM, first compound 0.316 µM
[53] = second compound 10 µM, first compound 1 µM
[54] = second compound 10 µM, first compound 3.16 µM
[55] = second compound 10 µM, first compound 10 µM
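Also: spheroids exposed to agents for seven days before readout.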
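For viability, T/C in this document: percent of DMSO vehicle control luminescence viability.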

## CC(C)c1c(-c2ccccc2)nc2c(C#N)c[nH]n2c1=O
Compound 0.0316 µM
  viability, T/C: 105% and 98.6% and 111%
Compound 0.1 µM
  viability, T/C: 97.8% and 96% and 112%
Compound 0.316 µM
  viability, T/C: 111% and 97% and 96.5%
Compound 1 µM
  viability, T/C: 99.3% and 89.9% and 105%
Compound 3.16 µM
  viability, T/C: 105% and 98.1% and 98.8%
Compound 10 µM
  viability, T/C: 77.9% and 92% and 96.4%
Curve of compound
  IC50: > 10000 nM

## Nc1ccccc1NC(=O)c1ccc(CNC(=O)OCc2cccnc2)cc1
Compound 0.0316 µM
  viability, T/C: 86.3% and 105% and 90.3%
Compound 0.1 µM
  viability, T/C: 87.8% and 108% and 86.7%
Compound 0.316 µM
  viability, T/C: 82.7% and 108% and 84.8%
Compound 1 µM
  viability, T/C: 82.7% and 109% and 97.4%
Compound 3.16 µM
  viability, T/C: 46.1% and 85.7% and 68.4%
Compound 10 µM
  viability, T/C: 5.42% and 27.3% and 14.9%
Curve of compound
  IC50: 2800 nM and 6390 nM and 4690 nM

## CC[C@@]1(O)C(=O)OCc2c1cc1n(c2=O)Cc2cc3c(CN(C)C)c(O)ccc3nc2-1 + Cc1ccccc1N=Nc1ccc(NC(=O)c2ccnn2C)c(C)c1
[1]
  IC50: 86.1 nM
[2]
  IC50: 65.1 nM
[3]
  IC50: 62 nM
[4]
  IC50: 31.9 nM
[5]
  IC50: 30.5 nM
[6]
  viability, T/C: 104%
[7]
  viability, T/C: 103%
[8]
  viability, T/C: 106%
[9]
  viability, T/C: 97.9%
[10]
  viability, T/C: 90.4%
[11]
  viability, T/C: 43.7%
[12]
  viability, T/C: 96.7%
[13]
  viability, T/C: 101%
[14]
  viability, T/C: 94.1%
[15]
  viability, T/C: 97.2%
[16]
  viability, T/C: 77.8%
[17]
  viability, T/C: 33.5%
[18]
  viability, T/C: 110%
[19]
  viability, T/C: 98.3%
[20]
  viability, T/C: 95.2%
[21]
  viability, T/C: 98.7%
[22]
  viability, T/C: 74.7%
[23]
  viability, T/C: 31.9%
[24]
  viability, T/C: 97.4%
[25]
  viability, T/C: 96.4%
[26]
  viability, T/C: 89.3%
[27]
  viability, T/C: 87.1%
[28]
  viability, T/C: 49.9%
[29]
  viability, T/C: 30.8%
[30]
  viability, T/C: 88.1%
[31]
  viability, T/C: 81.7%
[32]
  viability, T/C: 87.6%
[33]
  viability, T/C: 86.9%
[34]
  viability, T/C: 48.7%
[35]
  viability, T/C: 29.7%

## O=C(C=Cc1cccc(S(=O)(=O)Nc2ccccc2)c1)NO + Cc1cncc(-c2nc(NCCc3c[nH]c4ccccc34)c3ncn(C(C)C)c3n2)c1
[1]
  IC50: 1480 nM
[2]
  IC50: 1390 nM
[3]
  IC50: 1140 nM
[4]
  IC50: 494 nM
[5]
  IC50: < 31.6 nM
[10]
  viability, T/C: 81.7%
[11]
  viability, T/C: 86.4%
[36]
  viability, T/C: 85.2%
[37]
  viability, T/C: 62.5%
[38]
  viability, T/C: 23.9%
[39]
  viability, T/C: 0.91%
[16]
  viability, T/C: 84.8%
[17]
  viability, T/C: 82.9%
[40]
  viability, T/C: 81.5%
[41]
  viability, T/C: 59.9%
[42]
  viability, T/C: 23.5%
[43]
  viability, T/C: 0.69%
[22]
  viability, T/C: 82.6%
[23]
  viability, T/C: 84.4%
[44]
  viability, T/C: 72%
[45]
  viability, T/C: 53.3%
[46]
  viability, T/C: 23.9%
[47]
  viability, T/C: 0.75%
[28]
  viability, T/C: 73.5%
[29]
  viability, T/C: 82.4%
[48]
  viability, T/C: 66%
[49]
  viability, T/C: 23.5%
[50]
  viability, T/C: 12.2%
[51]
  viability, T/C: 0.58%
[34]
  viability, T/C: 29.9%
[35]
  viability, T/C: 36.2%
[52]
  viability, T/C: 8.93%
[53]
  viability, T/C: 3.43%
[54]
  viability, T/C: 1.25%
[55]
  viability, T/C: 0.31%

## COc1cccc2c1C(=O)c1c(O)c3c(c(O)c1C2=O)CC(O)(C(=O)CO)CC3OC1CC(N)C(O)C(C)O1 (centres undefined) + Cc1cncc(-c2nc(NCCc3c[nH]c4ccccc34)c3ncn(C(C)C)c3n2)c1
[1]
  IC50: < 31.6 nM
[2]
  IC50: < 31.6 nM
[3]
  IC50: < 31.6 nM
[4]
  IC50: < 31.6 nM
[5]
  IC50: < 31.6 nM
[10]
  viability, T/C: 19.5%
[11]
  viability, T/C: 15.4%
[36]
  viability, T/C: 2.05%
[37]
  viability, T/C: 0.85%
[38]
  viability, T/C: 1.02%
[39]
  viability, T/C: 1.75%
[16]
  viability, T/C: 22.4%
[17]
  viability, T/C: 13.7%
[40]
  viability, T/C: 1.65%
[41]
  viability, T/C: 0.73%
[42]
  viability, T/C: 0.93%
[43]
  viability, T/C: 1.37%
[22]
  viability, T/C: 17.8%
[23]
  viability, T/C: 10.3%
[44]
  viability, T/C: 4.93%
[45]
  viability, T/C: 4.6%
[46]
  viability, T/C: 0.74%
[47]
  viability, T/C: 1.14%
[28]
  viability, T/C: 17.9%
[29]
  viability, T/C: 7.51%
[48]
  viability, T/C: 2.13%
[49]
  viability, T/C: 1.95%
[50]
  viability, T/C: 1.19%
[51]
  viability, T/C: 0.94%
[34]
  viability, T/C: 4.02%
[35]
  viability, T/C: 1.33%
[52]
  viability, T/C: 0.55%
[53]
  viability, T/C: 0.22%
[54]
  viability, T/C: 0.28%
[55]
  viability, T/C: 0.3%

## CC[C@@]1(O)C(=O)OCc2c1cc1n(c2=O)Cc2cc3c(CN(C)C)c(O)ccc3nc2-1 + CC(CO)NC(=O)c1cc(-c2ccc(Cl)cc2)nn(-c2cnn(C)c2)c1=O
[1]
  IC50: 60.2 nM
[2]
  IC50: 58.6 nM
[3]
  IC50: 56.4 nM
[4]
  IC50: 54.7 nM
[5]
  IC50: 45.1 nM
[6]
  viability, T/C: 96.7%
[7]
  viability, T/C: 97.5%
[8]
  viability, T/C: 93.7%
[9]
  viability, T/C: 102%
[10]
  viability, T/C: 86.5%
[11]
  viability, T/C: 20.9%
[12]
  viability, T/C: 106%
[13]
  viability, T/C: 100%
[14]
  viability, T/C: 98.8%
[15]
  viability, T/C: 98.9%
[16]
  viability, T/C: 87.3%
[17]
  viability, T/C: 17.9%
[18]
  viability, T/C: 104%
[19]
  viability, T/C: 97.8%
[20]
  viability, T/C: 105%
[21]
  viability, T/C: 104%
[22]
  viability, T/C: 84.9%
[23]
  viability, T/C: 15.5%
[24]
  viability, T/C: 99.4%
[25]
  viability, T/C: 96.6%
[26]
  viability, T/C: 93%
[27]
  viability, T/C: 95.5%
[28]
  viability, T/C: 83.5%
[29]
  viability, T/C: 13%
[30]
  viability, T/C: 86.2%
[31]
  viability, T/C: 100%
[32]
  viability, T/C: 102%
[33]
  viability, T/C: 96.3%
[34]
  viability, T/C: 65.8%
[35]
  viability, T/C: 14.8%

From PubChem BioAssay AID1919005 (Molecular Pharmacology Branch, DTP, NCI, 2023)
